Here are results for 30 compounds from PMC7587356, “High-Throughput Screening for Inhibitors of the SARS-CoV-2 Protease Using a FRET-Biosensor” (Molecules, 2020).

Structures are written as SMILES. Where a name gives a salt, the structure may show the parent alone. Read-outs that look alike come from different tables or passages of the source.

For the test, the target named is SARS-CoV-2 3CLpro (Severe acute respiratory syndrome coronavirus 2, UniProt P0DTD1). The test can be described thus: biochemical. It counts as biochemical. Also noted: Replicate_1 / Replicate_2 / mean / mean (LOPAC_screen_w_protease): unit not given here. The following applies: for inhibition at 5 µM: 4 h; for mean (LOPAC screen with protease) / Replicate_1 (LOPAC screen with protease) / Replicate_2 (LOPAC screen with protease): primary screen at 5 µM.

Where [1] appears, read: sheet LOPAC_screen_w_protease, primary screen with protease, mean of two replicates, read-out: mean.
Where [2] appears, read: sheet LOPAC_screen_w_protease, primary screen with protease, replicate 1, read-out: Replicate_1.
Setting [3] is: sheet LOPAC_screen_w_protease, primary screen with protease, replicate 2, read-out: Replicate_2.
Where [4] appears, read: sheet LOPAC_screen_w_protease, LOPAC1280 at 5 µM, mean of two replicates, read-out: mean.
[5] abbreviates: sheet LOPAC_screen_w_protease, LOPAC1280 at 5 µM, replicate 1, read-out: Replicate_1.
Setting [6] is: sheet LOPAC_screen_w_protease, LOPAC1280 at 5 µM, replicate 2, read-out: Replicate_2.
The mark [7] stands for this setting: sheet LOPAC_screen_w_protease, mean of two replicates.
The mark [8] stands for this setting: sheet LOPAC_screen_w_protease, replicate 1.
The mark [9] stands for this setting: sheet LOPAC_screen_w_protease, replicate 2.
Setting [10] is: sheet LOPAC_screen_w_protease, LOPAC1280 at 5 µM, mean of two replicates.
Setting [11] is: sheet LOPAC_screen_w_protease, LOPAC1280 at 5 µM, replicate 1.
[12] abbreviates: sheet LOPAC_screen_w_protease, LOPAC1280 at 5 µM, replicate 2.
Setting [13] is: LOPAC1280 primary screen with protease, 5 µM compound, mean of two replicates.
Setting [14] is: LOPAC1280 primary screen with protease, 5 µM compound, replicate 1.
Where [15] appears, read: LOPAC1280 primary screen with protease, 5 µM compound, replicate 2.
[16] abbreviates: LOPAC1280 primary screen with protease, 5 µM compound, replicate 1, read-out: Replicate_1 (LOPAC_screen_w_protease).
The mark [17] stands for this setting: LOPAC1280 primary screen with protease, 5 µM compound, replicate 2, read-out: Replicate_2 (LOPAC_screen_w_protease).
Where [18] appears, read: sheet LOPAC_screen_w_protease, LOPAC1280 primary screen with protease, 5 µM compound, mean of the two replicates.
Where [19] appears, read: sheet LOPAC_screen_w_protease, LOPAC1280 primary screen with protease, 5 µM compound, replicate 1.
[20] abbreviates: sheet LOPAC_screen_w_protease, LOPAC1280 primary screen with protease, 5 µM compound, replicate 2.
The mark [21] stands for this setting: sheet LOPAC_screen_w_protease, primary screen with protease, 5 µM, mean of two replicates.
Where [22] appears, read: sheet LOPAC_screen_w_protease, primary screen with protease, 5 µM, replicate 1.
Where [23] appears, read: sheet LOPAC_screen_w_protease, primary screen with protease, 5 µM, replicate 2.

Regarding `N=c1ccn2c(n1)O[C@H]1[C@H](O)[C@@H](CO)O[C@H]12` [Ancitabine hydrochloride], the inhibition at 5 µM under setting [1] was 2.45%, the inhibition at 5 µM under setting [2] was 2.42% and the inhibition at 5 µM under setting [3] worked out at 2.49%.
On to `CN(C)CCOC(=O)COc1ccc(Cl)cc1` [Centrophenoxine hydrochloride], for which the inhibition at 5 µM worked out at 1.27% under setting [4], 1.82% under setting [5] and 0.724% under setting [6].
In the case of `COc1cc2ncnc(Nc3cccc(Cl)c3)c2cc1OC` [Tyrphostin AG 1478], the inhibition at 5 µM runs as follows: under setting [4], 1.16%; under setting [5], 1.39%; under setting [6], 0.935%.
Consider `Cl.Cl.Oc1ccc2c3c1O[C@H]1c4[nH]c5c(c4C[C@@]4(O)[C@@H](C2)N(CC2CC2)CC[C@]314)C[C@@]1(O)[C@H]2Cc3ccc(O)c4c3[C@@]1(CCN2CC1CC1)[C@H]5O4` [nor-Binaltorphimine dihydrochloride], for which the “mean (LOPAC screen with protease)” value under setting [7] is 34.0021. Also, under setting [8], the “Replicate_1 (LOPAC screen with protease)” value came out at 34.0521. The “Replicate_2 (LOPAC screen with protease)” value under setting [9] is 33.9521.
Take `NC(=O)c1cnccn1` [Pyrazinecarboxamide]: under setting [10], the mean is 0.9233. Besides, the Replicate_1 under setting [11] amounted to 1.572. In addition, the Replicate_2 under setting [12] came out at 0.2741.
As for `C[C@]12CCC(=O)C=C1CC[C@@H]1[C@@H]2CC[C@]2(C)C(=O)CC[C@@H]12` [4-Androstene-3,17-dione], the inhibition at 5 µM runs as follows: (read-out: Replicate_1) 0.757%; (read-out: Replicate_2) 1.66%; (read-out: mean) 1.21%.
`C[N+]1(C)CCN(c2ccccc2)CC1.[I-]`: under setting [7], the “mean (LOPAC screen with protease)” value worked out at 7.007. Moreover, the “Replicate_1 (LOPAC screen with protease)” value under setting [8] stood at 5.351. The “Replicate_2 (LOPAC screen with protease)” value under setting [9] is given as 8.6627.
With `NC(N)=NCc1cccc(I)c1.NC(N)=NCc1cccc(I)c1.O=S(=O)(O)O` [m-Iodobenzylguanidine hemisulfate], the mean (sheet LOPAC_screen_w_protease, primary screen with protease, mean of two replicates) was 2.496. Besides, the Replicate_1 (sheet LOPAC_screen_w_protease, primary screen with protease, replicate 1) is reported as 1.063. Under “sheet LOPAC_screen_w_protease, primary screen with protease, replicate 2”, this compound displayed a Replicate_2 of 3.929.
With `NC(CCCP(=O)(O)O)C(=O)O` (racemic) [(±)-2-Amino-5-phosphonopentanoic acid], the “mean (LOPAC_screen_w_protease)” value under setting [13] worked out at 1.558. Further, under setting [14], the “Replicate_1 (LOPAC_screen_w_protease)” value turned out to be 1.59. The “Replicate_2 (LOPAC_screen_w_protease)” value under setting [15] is reported as 1.526.
Compound `Cl.O=C(O)C1CCCN(CCC=C(c2ccccc2)c2ccccc2)C1` (stereo not drawn) [SKF 89976A hydrochloride] returned a mean (sheet LOPAC_screen_w_protease, LOPAC1280 primary screen at 5 µM, with protease, mean of the two replicates) of 0.532. Under “sheet LOPAC_screen_w_protease, LOPAC1280 primary screen at 5 µM, with protease, replicate 1”, the Replicate_1 is given as 1.548. The same compound yielded a Replicate_2 (sheet LOPAC_screen_w_protease, LOPAC1280 primary screen at 5 µM, with protease, replicate 2) of -0.4841.
For `Br.C=CCN1CCc2cccc3c2[C@H]1Cc1ccc(O)c(O)c1-3` [R(-)-N-Allylnorapomorphine hydrobromide], the “mean (LOPAC screen with protease)” value under setting [7] was 97.2039. Moreover, the “Replicate_1 (LOPAC screen with protease)” value under setting [8] is 99.2109. The “Replicate_2 (LOPAC screen with protease)” value under setting [9] came to 95.1969.
As for `Nc1nnc(-c2cccc(Cl)c2Cl)c(N)n1` [Lamotrigine], the inhibition at 5 µM reads like this: under setting [16], 1.42%; under setting [17], 1.78%. Also, the “mean (LOPAC_screen_w_protease)” value under setting [13] is on record as 1.603.
For `O=C(NCC1CCCCN1)c1cc(OCC(F)(F)F)ccc1OCC(F)(F)F` (stereo not drawn) [Flecainide acetate], the inhibition at 5 µM under setting [4] was 1.01%, the inhibition at 5 µM under setting [5] worked out at 2.84% and the inhibition at 5 µM under setting [6] is -0.814%.
In the case of `CCn1nc(C(=O)O)c(=O)c2cc3c(cc21)OCO3` [Cinoxacin], the inhibition at 5 µM under setting [16] is -0.0118% and the inhibition at 5 µM under setting [17] is 4.09%. Also, the “mean (LOPAC_screen_w_protease)” value (LOPAC1280 primary screen with protease, 5 µM compound, mean of the two replicates) turned out to be 2.037.
The compound `CN(C)CCC(c1ccc(Br)cc1)c1ccccn1.O=C(O)/C=C\C(=O)O` (racemic) [(±)-Brompheniramine maleate] gave a mean (sheet LOPAC_screen_w_protease, primary screen with protease, compound at 5 µM, mean of two replicates) of 2.6339. In addition, the Replicate_1 (sheet LOPAC_screen_w_protease, primary screen with protease, compound at 5 µM, replicate 1) worked out at 2.5605. Where the note is “sheet LOPAC_screen_w_protease, primary screen with protease, compound at 5 µM, replicate 2”, this compound registered a Replicate_2 of 2.707.
The compound `O=C(O)/C=C1\CCCc2ccccc2C1O` (stereo not drawn) [NCS-382] had a mean under setting [18] of 5.8931. This compound gave a Replicate_1 under setting [19] of 5.187. The same compound registered a Replicate_2 under setting [20] of 6.599.
As for `Cn1c(=O)c2[nH]c(-c3ccccc3)nc2n(C)c1=O` [1,3-Dimethyl-8-phenylxanthine], under setting [18], the mean is on record as 6.36. The compound also came in with a Replicate_1 under setting [19] of 5.626. The compound also returned a Replicate_2 under setting [20] of 7.0953.
Under setting [10], `CC(=O)[C@H]1CC[C@H]2[C@@H]3CC=C4C[C@@H](OS(=O)(=O)[O-])CC[C@]4(C)[C@H]3CC[C@]12C.[Na+]` [Pregnenolone sulfate sodium] displayed a mean of 1.045. The same compound showed a Replicate_1 under setting [11] of 0.04623. The compound also came in with a Replicate_2 under setting [12] of 2.043.
For the compound `C[C@]12CCC(=O)C=C1CC[C@@H]1[C@@H]2[C@@H](O)C[C@@]2(C)[C@H]1CC[C@]2(O)C(=O)CO` [Hydrocortisone], the inhibition at 5 µM under setting [4] was 1.15%, the inhibition at 5 µM under setting [5] came out at 2.23% and the inhibition at 5 µM under setting [6] was determined as 0.0692%.
Turning to `CC1=C(C(=O)O)N2C(=O)[C@@H](NC(=O)[C@H](N)c3ccccc3)[C@H]2SC1.O` [Cephalexin hydrate], under setting [13], the “mean (LOPAC_screen_w_protease)” value was found to be 1.619. The “Replicate_1 (LOPAC_screen_w_protease)” value under setting [14] was 2.163. Further, the “Replicate_2 (LOPAC_screen_w_protease)” value under setting [15] is reported as 1.074.
Consider `CC(C)N(CCC(C(N)=O)(c1ccccc1)c1ccccn1)C(C)C` (stereo not drawn) [Disopyramide], for which the inhibition at 5 µM is, setting by setting: (sheet LOPAC_screen_w_protease, primary screen of LOPAC1280 at 5 µM with protease, mean of the two replicates, read-out: mean) 3.48%; (sheet LOPAC_screen_w_protease, primary screen of LOPAC1280 at 5 µM with protease, replicate 1, read-out: Replicate_1) 4.56%; (sheet LOPAC_screen_w_protease, primary screen of LOPAC1280 at 5 µM with protease, replicate 2, read-out: Replicate_2) 2.4%.
For `CN1C(C)(C)CCCC1(C)C` [Pempidine tartrate], the inhibition at 5 µM by setting is: under setting [1], 2.3%; under setting [2], 2.5%; under setting [3], 2.11%.
Under setting [21], `COc1ccc2c(c1)c(CC(=O)O)c(C)n2Cc1ccc(Cl)cc1` had a mean of 0.3525. Under setting [22], this compound displayed a Replicate_1 of -0.9083. Besides, the Replicate_2 under setting [23] amounted to 1.613.
As for `Cc1[nH]c2ccc(O)cc2c1CCN.O=C(O)/C=C\C(=O)O` [2-Methyl-5-hydroxytryptamine maleate], the mean under setting [18] worked out at 5.124. Under setting [19], the Replicate_1 is given as 4.629. The Replicate_2 under setting [20] is on record as 5.62.
As for `O=c1[nH]c(=O)n([C@H]2C[C@H](O)[C@@H](CO)O2)cc1Br` [5-Bromo-2'-deoxyuridine], the inhibition at 5 µM came out at 1.74% under setting [16] and 1.06% under setting [17]. Moreover, the “mean (LOPAC_screen_w_protease)” value under setting [13] is recorded as 1.398.
On to `CCc1cccc2c3c([nH]c12)C(CC)(CC(=O)O)OCC3` (stereo not drawn) [Etodolac], for which the inhibition at 5 µM (sheet LOPAC_screen_w_protease, LOPAC1280 primary screen at 5 µM, with protease, mean of the two replicates, read-out: mean) is 0.659%; the inhibition at 5 µM (sheet LOPAC_screen_w_protease, LOPAC1280 primary screen at 5 µM, with protease, replicate 1, read-out: Replicate_1) was 1.48%; the inhibition at 5 µM (sheet LOPAC_screen_w_protease, LOPAC1280 primary screen at 5 µM, with protease, replicate 2, read-out: Replicate_2) was -0.164%.
For the compound `Cl.NCC(O)c1ccc(O)cc1` (racemic) [(±)-Octopamine hydrochloride], the mean (sheet LOPAC_screen_w_protease, primary screen of LOPAC1280 at 5 µM with protease, mean of the two replicates) is on record as 4.023. Where the note is “sheet LOPAC_screen_w_protease, primary screen of LOPAC1280 at 5 µM with protease, replicate 1”, this compound came in with a Replicate_1 of 4.835. For the setting “sheet LOPAC_screen_w_protease, primary screen of LOPAC1280 at 5 µM with protease, replicate 2”, this compound gave a Replicate_2 of 3.21.
For `O=C(O)/C(=C/c1c(C(=O)O)[nH]c2cc(Cl)cc(Cl)c12)c1ccccc1` [MDL 105,519], the Replicate_1 is given as 2.708, the Replicate_2 was 5.657 and the mean was 4.183.
For `CCCCC/C=C\C/C=C\C/C=C\C/C=C\CCCC(=O)NCC(=O)O` [N-arachidonylglycine], the mean under setting [21] is listed as 0.3785. The same compound returned a Replicate_1 under setting [22] of 1.728. Further, under setting [23], the Replicate_2 is -0.9708.
Regarding `Cc1ccc(S(=O)(=O)N[C@@H](Cc2ccccc2)C(=O)CCl)cc1`, the “mean (LOPAC screen with protease)” value under setting [7] is listed as 61.4515. The “Replicate_1 (LOPAC screen with protease)” value under setting [8] stood at 61.5523. In addition, under setting [9], the “Replicate_2 (LOPAC screen with protease)” value amounted to 61.3507.
